Counter-ions that a name gives are not always drawn.

In the case of `N[C@@H]1CN2C(=O)N(c3cc(Cl)nc(Cl)c3)C(=O)[C@@]2(Cc2ccc(OC(F)(F)F)cc2)C1` [Example 63, (5R,7S)-5-[4-(Trifluoromethoxy)benzyl]-3-(2,6-dichloro-4-pyridyl)-7-amino-1,3-diazabicyclo[3.3.0]octane-2,4-dione], the melting point amounted to 150.6 °C.

`CN(C)C(=O)C1CN2C(=O)N(c3cc(Cl)cc(Cl)c3)C(=O)C2(Cc2ccc(OC(F)(F)F)cc2)C1` (stereo not drawn) [Example 313]: the melting point amounted to 106.1 °C.

In the case of `Nc1ccc(-c2ccc(CC34CCCN3C(=O)N(c3cc(Cl)cc(Cl)c3)C4=O)cc2)cc1` (stereo not drawn) [Example 115, 5-[4-(4-Aminophenyl)benzyl]-3-(3,5-dichlorophenyl)-1,3-diazabicyclo[3.3.0]octane-2,4-dione], the melting point was 278 °C (dec.).

`NC(=O)C[C@H](NC(=O)c1c(Cl)cc(N2C(=O)N3CCCC3(Cc3ccc(Br)cc3)C2=O)cc1Cl)C(=O)O` (stereo partly drawn) [Example 229, 5-(4-Bromobenzyl)-3-(3,5-dichloro-4-L-asparaginocarbonylphenyl)-1,3-diazabicyclo[3.3.0]octane-2,4-dione] gave a melting point of 172 °C.

Take `O=C(O)CN1CCN2C(=O)N(c3cc(Cl)cc(Cl)c3)C(=O)C2(Cc2ccc(Br)cc2)C1` (stereo not drawn) [Example 34, 4-Carboxymethyl-6-(4-bromobenzyl)-8-(3,5-dichlorophenyl)-1,4,8-triazabicyclo[4.3.0]nonane-7,9-dione]: the melting point was 236.5 °C.

As for `CN(C)CC(=O)N1CCN2C(=O)N(c3cc(Cl)nc(Cl)c3)C(=O)C2(Cc2ccc(C#N)cc2)C1` (stereo not drawn) (as salt: HCl) [Example 166, 6-(4-Cyanobenzyl)-4-dimethylaminoacetyl-8-(2,6-dichloro-4-pyridyl)-1,4,8-triazabicyclo[4.3.0]nonane-7,9-dione], the melting point is 260.8 °C (dec.).

In the case of `COC(=O)CCN1CCCC2(Cc3ccc(Br)cc3)C(=O)N(c3cc(Cl)nc(Cl)c3)C(=O)N12` (stereo not drawn) [Example 103, 6-(4-Bromobenzyl)-8-(2,6-dichloro-4-pyridyl)-2-[2-(methoxycarbonyl)ethyl]-1,2,8-triazabicyclo[4.3.0]nonane-7,9-dione], the melting point was 157 °C.

Turning to `NCC(=O)N[C@@H]1CN2C(=O)N(c3cc(Cl)nc(Cl)c3)C(=O)[C@@]2(Cc2ccc(OC(F)(F)F)cc2)C1` [Example 252, (5R, 7S)-5-[4-(Trifluoromethoxy)benzyl]-3-(2,6-dichloro-4-pyridyl)-7-aminoacetylamino-1,3-diazabicyclo[3.3.0]octane-2,4-dione], the melting point was determined as 114 °C.

As for `COC(=O)c1ccc(CC23CCCCN2C(=O)N(c2cc(Cl)cc(Cl)c2)C3=O)cc1` (stereo not drawn) [Example 155, 6-(4-Methoxycarbonylbenzyl)-8-(3,5-dichlorophenyl)-1,8-diazabicyclo[4.3.0]nonane-7,9-dione], the melting point stood at 51 °C.

In turn, `CC(=O)N[C@@H]1CN2C(=O)N(c3cc(Cl)cc(Cl)c3)C(=O)[C@]2(Cc2ccc(OC(F)(F)F)cc2)C1` [Example 291] came in with a melting point of 61.2 °C.

On to `NC1CN2C(=O)N(c3cc(Cl)nc(Cl)c3)C(=O)C2(Cc2ccc(OC(F)(F)F)cc2)C1` (stereo not drawn) [Example 281], for which the melting point was 123.5 °C.

The molecule `CS(=O)(=O)N[C@@H]1CN2C(=O)N(c3cc(Cl)nc(Cl)c3)C(=O)[C@@]2(Cc2ccc(OC(F)(F)F)cc2)C1` [Example 254, (5R, 7S)-5-[4-(Trifluoromethoxy)benzyl]-3-(2,6-dichloro-4-pyridyl)-7-methanesulfonylamino-1,3-diazabicyclo[3.3.0]octane-2,4-dione] returned a melting point of 207.2 °C.

As a reminder, the melting point is the temperature, or range, at which the solid turns liquid.

The values are drawn from patent US7342012B2, “Inhibitors of αLβ2 mediated cell adhesion” (Mitsubishi Tanabe Pharma Corporation, priority 1999, dated 2008).
